Source: patent US12528778B2, “Microbiocidal derivatives” (SYNGENTA CROP PROTECTION AG, priority 2019, dated 2026)

Key:
Format in all cases: cell-based
[1] = tested on: Mycosphaerella graminicola (Septoria tritici); assay: Mycosphaerella graminicola (Septoria tritici) / liquid culture (Septoria blotch); conditions: Zymoseptoria tritici, PDB liquid culture, 24° C., growth inhibition determined photometrically 4-5 days after application, vs untreated control
Method: Example B12: Mycosphaerella graminicola (Septoria tritici)/Liquid Culture (Septoria Blotch) Conidia of the fungus from cryogenic storage are directly mixed into nutrient broth (PDB potato dextrose broth). After placing a (DMSO) solution of test compound into a microtiter plate (96-well format), the nutrient broth containing the fungal spores is added. The test plates are incubated at 24° C. and the inhibition of growth is determined photometrically 4-5 days after application. […] […]-48, and P-49.

[2] = tested on: Monographella nivalis (Microdochium nivale); assay: Monographella nivalis (Microdochium nivale) / liquid culture (foot rot cereals); conditions: PDB liquid culture, 24° C., growth inhibition determined photometrically 4-5 days after application, vs untreated control
Method: (§1) Example B5: Monographella nivalis (Microdochium nivale)/Liquid Culture (Foot Rot Cereals) Conidia of the fungus from cryogenic storage are directly mixed into nutrient broth (PDB potato dextrose broth). After placing a (DMSO) solution of test compound into a microtiter plate (96-well format), the nutrient broth containing the fungal spores is added. The test plates are incubated at 24° C. and the inhibition of growth is determined photometrically 4-5 days after application. […] […]-49, and P-50.

[3] = tested on: Glomerella lagenarium (Colletotrichum lagenarium); assay: Glomerella lagenarium (Colletotrichum lagenarium) / liquid culture (anthracnose); conditions: Colletotrichum orbiculare, PDB liquid culture, 24° C., growth inhibition measured photometrically 3-4 days after application, vs untreated control
Method: as §1, with “B2: Glomerella lagenarium (Colletotrichum lagenarium)/Liquid” for “B5: Monographella nivalis (Microdochium nivale)/Liquid”, “(Anthracnose)” for “(Foot Rot Cereals)”, “measured” for “determined”, “3-4” for “4-5”

Structure (SMILES)	inhibition of growth at 20 ppm [1]	inhibition of growth at 20 ppm [2]	inhibition of growth at 20 ppm [3]
COc1ncc(NC2CCC2)nc1C(=O)NC1CCC1(C)C (stereo not shown) [Compound P-2, 6-(cyclobutylamino)-N-(2,2-dimethylcyclobutyl)-3-methoxy-pyrazine-2-carboxamide]	≥ 80%	≥ 80%	≥ 80%
COc1ncc(NC2CC2)nc1C(=O)NC1CCC1(C)C (stereo not shown) [Compound P-3, 6-(cyclopropylamino)-N-(2,2-dimethylcyclobutyl)-3-methoxy-pyrazine-2-carboxamide]		≥ 80%	≥ 80%
COc1ncc(Nc2cc(F)cc(F)c2)nc1C(=O)NC1(c2ccccn2)CC1 [Compound P-7, 6-(3,5-difluoroanilino)-3-methoxy-N-[1-(2-pyridyl)cyclopropyl] pyrazine-2-carboxamide]		≥ 80%	
COc1ncc(Nc2cnsc2)nc1C(=O)NCCc1ccc(OC(F)(F)F)cc1 [Compound P-10]		≥ 80%	≥ 80%
COc1ncc(Nc2cnsc2)nc1C(=O)NCC1(C(F)(F)F)CC1 [Compound P-11]	≥ 80%	≥ 80%	≥ 80%
COc1ncc(Nc2cnsc2)nc1C(=O)NCc1cccc2c1OC(F)(F)O2 [Compound P-12, N-[(2,2-difluoro-1,3-benzodioxol-4-yl)methyl]-6-(isothiazol-4-ylamino)-3-methoxy-pyrazine-2-carboxamide]	≥ 80%	≥ 80%	≥ 80%
COc1ncc(Nc2cnsc2)nc1C(=O)NC1CCc2cc(C(F)(F)F)ccc21 (stereo not shown) [Compound P-15, 6-(isothiazol-4-ylamino)-3-methoxy-N-[5-(trifluoromethyl)indan-1-yl]pyrazine-2-carboxamide]	≥ 80%	≥ 80%	≥ 80%
CCON=C(CNC(=O)c1nc(Nc2cc(F)cc(F)c2)cnc1OC)c1ncc(Cl)cc1Cl [Compound P-17, N-[2-(3,5-dichloro-2-pyridyl)-2-ethoxyimino-ethyl]-6-(3,5-difluoroanilino)-3-methoxy-pyrazine-2-carboxamide]		≥ 80%	≥ 80%
COc1ncc(Nc2cc(F)cc(F)c2)nc1C(=O)NCCc1ccc(OC(F)(F)F)cc1 [Compound P-18, 6-(3,5-difluoroanilino)-3-methoxy-N-[2-[4-(trifluoromethoxy)phenyl]ethyl]pyrazine-2-carboxamide]		≥ 80%	≥ 80%
COc1ncc(Nc2cc(F)cc(F)c2)nc1C(=O)NCc1cccc2ccnn12 [Compound P-27]			≥ 80%
COc1ncc(Nc2cc(F)cc(F)c2)nc1C(=O)NC1CCc2ccc(C(F)(F)F)cc21 (stereo not shown) [Compound P-31, 6-(3,5-difluoroanilino)-3-methoxy-N-[6-(trifluoromethyl)indan-1-yl]pyrazine-2-carboxamide]	≥ 80%		≥ 80%
COc1ncc(Nc2cc(F)cc(F)c2)nc1C(=O)NC1CCc2cc(C(F)(F)F)ccc21 (stereo not shown) [Compound P-32, 6-(3,5-difluoroanilino)-3-methoxy-N-[5-(trifluoromethyl)indan-1-yl]pyrazine-2-carboxamide]	≥ 80%	≥ 80%	≥ 80%
CCON=C(CNC(=O)c1nc(Nc2cc(F)nc(F)c2)cnc1OC)c1ncc(Cl)cc1Cl [Compound P-33, N-[2-(3,5-dichloro-2-pyridyl)-2-ethoxyimino-ethyl]-6-[(2,6-difluoro-4-pyridyl)amino]-3-methoxy-pyrazine-2-carboxamide]			≥ 80%
CC1(C)CCC1NC(=O)c1cncc(Nc2cc(F)nc(F)c2)n1 (stereo not shown) [Compound P-46, 6-[(2,6-difluoro-4-pyridyl)amino]-N-(2,2-dimethylcyclobutyl) pyrazine-2-carboxamide]	≥ 80%	≥ 80%	≥ 80%
